The subject of one data set is cat. The experiment in a line: Safety study in cat and tolerance studies in male and female species. Conditions: safety study in cat, high dose. In kind it is in vivo.
The next data set deals with dogs. Conditions: cited from earlier work.
Data set [1] has as its system male cats. The experiment in a line: Multi-site field, double-masked, placebo-controlled study of a single 4.7 mg deslorelin implant in male cats (Example 1). The class given is in vivo. How it is done: The aim of this multi-site field, double-masked, placebo-controlled, randomized study was to confirm that deslorelin implants can be used as a neutering option for male cats and can also reduce their associated tomcat sexual behaviours.
Privately owned indoor male cats [3 months-11 years of age] were allocated to two groups to be either implanted with one 4.7 mg deslorelin implant (Suprelorin® 4.7 mg, Virbac, France) or to receive sodium chloride. The implant and the saline solution were administered subcutaneously between the shoulder blades on day 0 (D0). Serum testosterone concentrations in ng/ml (T), sexual behaviors (presence of urine marking, frequency of vocalization, frequency of aggressiveness) and presence of intact male cat urine odour were assessed until month (M) 12 (D372). General safety assessments, bodyweight, appetite and adverse reactions were regularly followed.
The protocol received ethical approval. The Cochran-Mantel-Haenszel test stratified by center with the RIDIT transformation and the general association statistic were used for comparison between groups.
Among n=205 Male Cats, n=154 received Suprelorin® 4.7 mg (treated group) and n=51 received the saline solution as control group.

Data set [2] has as its system molecules responsible of urine odor. The data set can be described thus: LC-MS/MS metabolomic analysis of urine of male cats after deslorelin implant (Examples 2 and 3). The class given is in vivo, cat. On the procedure: A first study A was performed in 2 groups of a total number of 7 male healthy cats old from 12 to 13 months and weighting between 4 and 6 kg in: Control group: n=3, intact males, administered sodium chloride (saline) on day 0 (D0), Chemically treated group: n=4 one implant of Suprelorin® 4.7 mg on day 0 (D0). The study A was conducted for a period of 63 days after the implantation of Suprelorin® 4.7 mg. From […]-7, a clinical examination of the cats was performed (body weight, temperature) and samples of urine and feces were collected. At D0, the cats of the treated group were implanted subcutaneously with Suprelorin® 4.7 mg (Virbac, France). From D7 to […], a weekly clinical examination of the cats was performed (body weight, temperature) and samples urine and feces were collected. […] Thanks to this unusual technic, the metabolomics present in samples have been assessed. […] The workflow template was untargeted metabolomics with statistics to detect unknowns with ID using online Databases and mzLogic.ons obtained from positive and negative ionization mode using MZmine (Version 2.39) were also analyzed. […] Chromatograms were detected using the ADAP chromatogram builder (MS level: 1, Minimum group size in number of scans: 5, Group intensity threshold: 5×10^2, minimum highest intensity: 10^5, m/z tolerance: 10 ppm). […]

Data set [3] deals with male cats. The data set can be described thus: Cat field studies 1 and 2: suppression of fertility, re-implantation and reversibility (Example 4). The class given is in vivo. How it is done:
This example provides the data collected from 2 combined studies (Double-masked Placebo-Controlled randomized) that have been conducted sequentially according to the following schedule: • Study 1: The study 1 has been conducted on a group of 205 male cats divided into two groups, one Control Group that received 1 mL of saline solution (n=51-subcutaneous administration) and one Treated Group (n=154) that received an implant of Suprelorin® 4.7 mg (subcutaneous implant-deslorelin acetate). • Study 2: At the end of a first period of 12 months, the Suprelorin® implant was removed in all the male cats belonging to the Treated Group. 12 male cats of the Treated Group issued from study 1 were then administered saline solution (1 mL subcutaneously) (Saline Group) and 22 cats of the Treated Group issued from Study 1 were re-implanted with a new Suprelorin® 4.7 mg implant for a second period of time of 12 months (Treated twice Group). The efficacy and safety of the re-implantation was followed-up for these supplementary 12 months, i.e. for a total of 24 months.
The observation schedule was as follows: • Study 1: V1: Day −14 to −7; V2: Day 0; V3: 1.5 months±3 days; V4: 3 months±5 days, V5: 6 months±5 days, V6: 9 months±5 days; V7: 12 months±5 days; • Study 2: V8: 12 months±3 days; V9: 13.5 months±3 days; V10: 15 months±5 days; V11: 18 months±5 days; V12: 21 months±5 days; V13: 24 months±5 days.
Regarding the enrolment criteria, in both studies the criteria were as the following: • Domestic Cats • Age >3 MONTHS old or >15 MONTHS in Study 2 • Intact Indoor males • Client-owned (including shelter cats/rehomed by foster families)
With the additional criteria for study 2 of being a success in study 1.
In these studies the following primary endpoints were measured: • For Study 1: the suppression of fertility (Testosterone≤0.10 ng/ml*from V4 until V7*-3 to 12 months) • Study 2: the suppression of fertility (Testosterone≤0.10 ng/ml*from V8 until V13 (12 to 24 months) and the time to reversion effect.
In addition to the safety parameters (Haematology and blood biochemistry, Urinalysis, Local reactions at the implantation site, Change in Body weight, Appetite, Abnormal testicular evaluation, Adverse events), the following secondary endpoints have been reported as well: • Sexual behaviour sum score • Aggression • Vocalization • Urine marking • Urine Smell/odour • Penile Spines • Testicular volume

The mark [4] stands for this setting: vs saline group, throughout the study.

For `CCNC(=O)[C@@H]1CCCN1C(=O)[C@H](CCCN=C(N)N)NC(=O)[C@H](CC(C)C)NC(=O)[C@@H](Cc1c[nH]c2ccccc12)NC(=O)[C@H](Cc1ccc(O)cc1)NC(=O)[C@H](CO)NC(=O)[C@H](Cc1c[nH]c2ccccc12)NC(=O)[C@H](Cc1cnc[nH]1)NC(=O)[C@@H]1CCC(=O)N1` [deslorelin], in the data set with cat, the adverse events entry is “neither serious adverse events nor live threatening events”. Besides, the presence of deslorelin with dogs (dog, in vivo) is 2.5 months. Moreover, in the data set on dogs (dogs), the “duration of observed effect” value is “at least 6 months”. In addition, in the data set with male cats [1] (one 4.7 mg implant), the “flare in sexual behavior” value was “No flare in sexual behavior”. In the data set with male cats [1] (one 4.7 mg implant, up to M12), the safety concerns entry was “no safety concerns”. Moreover, in the data set on male cats [1] (setting [4]), the Sexual behavior scores entry was “decreased significantly”, the testicular volumes entry is “decreased significantly”, the urine odour entry is “decreased significantly” and the “visibility of penile spines” value is recorded as “decreased significantly”. Further, in data set [2] (individually or together at least by two, summary of Example 3 data), the “levels of cadaverine, indole, paracresol, isovalthine and isobuteine” value is “down regulate”. Besides, the “p-coumaroylputrescine concentration in urine” value in data set [2] (male cat urine, as a function of time, chemically treated group vs control group) is listed as “decrease”. Besides, in the data set with male cats [3], the “duration of effective chemical castration” value is given as “at least 12 months”, the “reversibility of effect at the end of the treatment” value was “reversible” and the sexual behaviors result is given as “reduced”. The “onset of efficacy in behavioral reduction” value with male cats [3] (approx.) was 7 to 31 days. Besides, the safety concerns entry in the data set on male cats [3] (single or repeated administration, up to 24 months) is given as “no safety concern”.
